The NIST ThermoML archive (doi:10.1021/je500696p)
± gives the expanded uncertainty stated by the source.

Legend:
[1] = xn = mol fraction of the nth substance listed; conditions: 100 kPa, Liquid, Vibrating tube method
[2] = excess molar enthalpy (molar enthalpy of mixing); xn = mol fraction of the nth substance listed; conditions: 100 kPa, Liquid, Calvet calorimetry

CCCC[N+](C)(C)C.O=S(=O)([N-]S(=O)(=O)C(F)(F)F)C(F)(F)F [butyltrimethylammonium bis(trifluoromethylsulfonyl)imide] + CCO
Conditions | excess molar enthalpy [kJ/mol] | mass density [kg/m3]
[1], 318.15 K, x2 = 0.5031 | – | 1271 ± 5.1
[1], 318.15 K, x2 = 0.6487 | – | 1209 ± 4.8
[1], 318.15 K, x2 = 0.7823 | – | 1118.6 ± 4.5
[1], 318.15 K, x2 = 0.8561 | – | 1043.1 ± 4.2
[1], 318.15 K, x2 = 0.8763 | – | 1017.4 ± 4.1
[1], 318.15 K, x2 = 0.9039 | – | 977.1 ± 3.9
[1], 318.15 K, x2 = 0.95 | – | 893.8 ± 3.6
[1], 318.15 K, x2 = 0.9745 | – | 838 ± 3.4
[1], 323.15 K, x2 = 0 | – | 1370.9 ± 5.5
[1], 323.15 K, x2 = 0.1284 | – | 1353.1 ± 5.4
[1], 323.15 K, x2 = 0.2585 | – | 1330.4 ± 5.3
[1], 323.15 K, x2 = 0.3814 | – | 1302.6 ± 5.2
[1], 323.15 K, x2 = 0.5031 | – | 1266.5 ± 5.1
[1], 323.15 K, x2 = 0.6487 | – | 1204.4 ± 4.8
[1], 323.15 K, x2 = 0.7823 | – | 1114 ± 4.5
[1], 323.15 K, x2 = 0.8561 | – | 1038.4 ± 4.2
[1], 323.15 K, x2 = 0.8763 | – | 1012.7 ± 4.1
[1], 323.15 K, x2 = 0.9039 | – | 972.4 ± 3.9
[1], 323.15 K, x2 = 0.95 | – | 889.2 ± 3.6
[1], 323.15 K, x2 = 0.9745 | – | 833.4 ± 3.3
[1], 328.15 K, x2 = 0 | – | 1366.6 ± 5.5
[1], 328.15 K, x2 = 0.1284 | – | 1348.7 ± 5.4
[1], 328.15 K, x2 = 0.2585 | – | 1325.9 ± 5.3
[1], 328.15 K, x2 = 0.3814 | – | 1298.1 ± 5.2
[1], 328.15 K, x2 = 0.5031 | – | 1261.9 ± 5.1
[1], 328.15 K, x2 = 0.6487 | – | 1199.7 ± 4.8
[1], 328.15 K, x2 = 0.7823 | – | 1109.2 ± 4.4
[1], 328.15 K, x2 = 0.8561 | – | 1033.7 ± 4.1
[1], 328.15 K, x2 = 0.8763 | – | 1008 ± 4
[1], 328.15 K, x2 = 0.9039 | – | 967.7 ± 3.9
[1], 328.15 K, x2 = 0.95 | – | 884.5 ± 3.5
[1], 328.15 K, x2 = 0.9745 | – | 828.8 ± 3.3
[1], 333.15 K, x2 = 0 | – | 1362.3 ± 5.5
[1], 333.15 K, x2 = 0.1284 | – | 1344.3 ± 5.4
[1], 333.15 K, x2 = 0.2585 | – | 1321.5 ± 5.3
[1], 333.15 K, x2 = 0.3814 | – | 1293.7 ± 5.2
[1], 333.15 K, x2 = 0.5031 | – | 1257.4 ± 5
[1], 333.15 K, x2 = 0.6487 | – | 1195.1 ± 4.8
[1], 333.15 K, x2 = 0.7823 | – | 1104.5 ± 4.4
[1], 333.15 K, x2 = 0.8561 | – | 1028.9 ± 4.1
[1], 333.15 K, x2 = 0.8763 | – | 1003.3 ± 4
[1], 333.15 K, x2 = 0.9039 | – | 963 ± 3.9
[1], 333.15 K, x2 = 0.95 | – | 879.8 ± 3.5
[1], 333.15 K, x2 = 0.9745 | – | 824.2 ± 3.3
[2], 308.15 K, x2 = 0.1229 | 0.848 ± 0.035 | –
[2], 308.15 K, x2 = 0.2546 | 1.63 ± 0.066 | –
[2], 308.15 K, x2 = 0.2623 | 1.66 ± 0.067 | –
[2], 308.15 K, x2 = 0.2752 | 1.72 ± 0.07 | –
[2], 308.15 K, x2 = 0.3943 | 2.13 ± 0.087 | –
[2], 308.15 K, x2 = 0.5084 | 2.34 ± 0.095 | –
[2], 308.15 K, x2 = 0.5133 | 2.31 ± 0.094 | –
[2], 308.15 K, x2 = 0.5408 | 2.33 ± 0.095 | –
[2], 308.15 K, x2 = 0.6267 | 2.28 ± 0.093 | –
[2], 308.15 K, x2 = 0.7252 | 2.13 ± 0.087 | –
[2], 308.15 K, x2 = 0.7354 | 2.1 ± 0.086 | –
[2], 308.15 K, x2 = 0.7659 | 1.96 ± 0.08 | –
[2], 308.15 K, x2 = 0.8645 | 1.47 ± 0.06 | –
[2], 313.15 K, x2 = 0.113 | 0.781 ± 0.032 | –
[2], 313.15 K, x2 = 0.2393 | 1.56 ± 0.064 | –
[2], 313.15 K, x2 = 0.2549 | 1.61 ± 0.066 | –
[2], 313.15 K, x2 = 0.3933 | 2.17 ± 0.088 | –
[2], 313.15 K, x2 = 0.4936 | 2.38 ± 0.097 | –
[2], 313.15 K, x2 = 0.4959 | 2.37 ± 0.097 | –
[2], 313.15 K, x2 = 0.499 | 2.38 ± 0.097 | –
[2], 313.15 K, x2 = 0.6245 | 2.36 ± 0.096 | –
[2], 313.15 K, x2 = 0.7406 | 2.12 ± 0.086 | –
[2], 313.15 K, x2 = 0.8666 | 1.54 ± 0.063 | –
[2], 323.15 K, x2 = 0.1187 | 0.773 ± 0.032 | –
[2], 323.15 K, x2 = 0.2569 | 1.7 ± 0.069 | –
[2], 323.15 K, x2 = 0.2694 | 1.76 ± 0.072 | –
[2], 323.15 K, x2 = 0.3969 | 2.25 ± 0.092 | –
[2], 323.15 K, x2 = 0.527 | 2.51 ± 0.1 | –
[2], 323.15 K, x2 = 0.5431 | 2.56 ± 0.1 | –
[2], 323.15 K, x2 = 0.6214 | 2.5 ± 0.1 | –
[2], 323.15 K, x2 = 0.7499 | 2.29 ± 0.093 | –
[2], 323.15 K, x2 = 0.8707 | 1.73 ± 0.07 | –
